Laboratory results taken from ChEMBL document CHEMBL2163231, “Synthesis and antituberculosis activity of novel unfolded and macrocyclic derivatives of ent-kaurane steviol” (2012).
In brackets after ≈: the same amount, converted by molar mass.

tested on: Mycobacterium tuberculosis; experiment: Antituberculosis activity against Mycobacterium tuberculosis H37Rv; type: functional

Going from `C[C@H]1C[C@@]23CC[C@H]4[C@@](C)(CCC[C@@]4(C)C(=O)O)[C@@H]2CC[C@]1(O)C3` to `C[C@@]12CC[C@@H]3[C@@](CC[C@H]4[C@@]3(C)CCC[C@@]4(C)C(=O)O)(CC1=O)C2` [ISOSTEVIOL], the MIC rises from 20 µg/mL (≈ 62.4 µM) to 50 µg/mL (≈ 157 µM) (2.5-fold).

`C[C@]12CC[C@H]3[C@](CC[C@@H]4[C@]3(C)CCC[C@]4(C)C(=O)O)(C[C@@H]1OC(=O)CC(=O)O[C@@H]1C[C@]34CC[C@H]5[C@@](C)(CCC[C@@]5(C)C(=O)O)[C@@H]3CC[C@@]1(C)C4)C2` and `C[C@]12CC[C@H]3[C@](CC[C@@H]4[C@]3(C)CCC[C@]4(C)C(=O)O)(C[C@@H]1OC(=O)CCCCCCC(=O)O[C@@H]1C[C@]34CC[C@H]5[C@@](C)(CCC[C@@]5(C)C(=O)O)[C@@H]3CC[C@@]1(C)C4)C2` are the same in MIC: 12.5 µg/mL (≈ 17.6 µM) for the first, 12.5 µg/mL (≈ 16 µM) for the second.

Going from `C[C@]12CC[C@H]3[C@](CC[C@@H]4[C@]3(C)CCC[C@]4(C)C(=O)O)(C[C@@H]1OC(=O)CCCCCCCCC(=O)O[C@@H]1C[C@]34CC[C@H]5[C@@](C)(CCC[C@@]5(C)C(=O)O)[C@@H]3CC[C@@]1(C)C4)C2` to `C[C@@H]1C[C@]23CC[C@@H]4[C@](C)(CCC[C@]4(C)C(=O)O)[C@H]2CC[C@@]1(OC(=O)CCCCCCCCC(=O)O[C@]12CC[C@@H]4[C@](CC[C@H]5[C@@]4(C)CCC[C@@]5(C)C(=O)O)(C[C@@H]1C)C2)C3`, the MIC rises from 12.5 µg/mL (≈ 15.5 µM) to 20 µg/mL (≈ 24.8 µM) (1.6-fold).

Going from `C[C@]12CC[C@H]3[C@@]4(CC[C@@H]5[C@]3(C)CCC[C@]5(C)C(=O)OCCCOC(=O)CC(=O)OCCCOC(=O)[C@]3(C)CCC[C@@]5(C)[C@@H]6CC[C@@]7(C)C[C@]6(CC[C@@H]53)C[C@H]7OC(=O)CCCCCCCCC(=O)O[C@H]1C4)C2` to `C[C@@H]1C[C@]23CC[C@@H]4[C@]5(C)CCC[C@]4(C)C(=O)OCCCOC(=O)CC(=O)OCCCOC(=O)[C@]4(C)CCC[C@@]6(C)[C@@H]7CC[C@@]8(C[C@@]7(CC[C@@H]64)C[C@@H]8C)OC(=O)CCCCCCCCC(=O)O[C@]1(CC[C@@H]25)C3`, the MIC rises from 1 µg/mL (≈ 1.01 µM) to 20 µg/mL (≈ 20.2 µM) (20-fold).

Compared with `C[C@@H]1C[C@]23CC[C@@H]4[C@](C)(CCC[C@]4(C)C(=O)O)[C@H]2CC[C@@]1(OC(=O)CC(=O)O[C@]12CC[C@@H]4[C@](CC[C@H]5[C@@]4(C)CCC[C@@]5(C)C(=O)O)(C[C@@H]1C)C2)C3`, `C[C@@H]1C[C@]23CC[C@@H]4[C@](C)(CCC[C@]4(C)C(=O)O)[C@H]2CC[C@@]1(OC(=O)CCCCCCC(=O)O[C@]12CC[C@@H]4[C@](CC[C@H]5[C@@]4(C)CCC[C@@]5(C)C(=O)O)(C[C@@H]1C)C2)C3` is 4-fold higher in MIC: 5 µg/mL (≈ 7.05 µM) for the first, 20 µg/mL (≈ 25.7 µM) for the second.

Compared with `C[C@@H]1C[C@]23CC[C@@H]4[C@]5(C)CCC[C@]4(C)C(=O)OC(=O)[C@]4(C)CCC[C@@]6(C)[C@@H]7CC[C@@]8(C[C@@]7(CC[C@@H]64)C[C@@H]8C)OC(=O)CCCCCCCCC(=O)O[C@]1(CC[C@@H]25)C3`, `C[C@@H]1C[C@]23CC[C@@H]4[C@](C)(CCC[C@]4(C)C(=O)O)[C@H]2CC[C@@]1(OC(=O)CCCCCCCCC(=O)O)C3` is 2-fold higher in MIC: 5 µg/mL (≈ 6.34 µM) for the first, 10 µg/mL (≈ 19.8 µM) for the second.

With `NNC(=O)c1ccncc1` [ISONIAZID] the MIC was 1 µg/mL (≈ 7.29 µM).
